Laboratory results from PubChem BioAssay (NCI).
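Where inhibition never reached the appropriate level, the endpoint shown equals the highest concentration tested. Otherwise, values were interpolated linearly from a five-concentration, 48-hour dose response in 96-well plates. The concentration for 50% growth inhibition is given as GI50. TGI is the concentration that stops growth completely.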

Assays:
Test in all cases: NCI tumour cell line growth inhibition, 48 h
SK-MEL-28 melanoma = test system: SK-MEL-28 melanoma
CCRF-CEM leukemia = test system: CCRF-CEM leukemia
HL-60(TB) leukemia = test system: HL-60(TB) leukemia
NCI-H23 lung = test system: NCI-H23 lung
IGROV1 ovarian = test system: IGROV1 ovarian
HOP-92 NSCLC = test system: HOP-92 NSCLC
ACHN renal = test system: ACHN renal
SK-MEL-2 melanoma = test system: SK-MEL-2 melanoma
SF-295 CNS = test system: SF-295 CNS
HT29 colon = test system: HT29 colon

Row | SMILES | TGI (SK-MEL-28 melanoma) [µM] | TGI (CCRF-CEM leukemia) [µM] | TGI (HL-60(TB) leukemia) [µM] | TGI (NCI-H23 lung) [µM] | TGI (IGROV1 ovarian) [µM] | TGI (HOP-92 NSCLC) [µM] | TGI (ACHN renal) [µM] | TGI (SK-MEL-2 melanoma) [µM] | TGI (SF-295 CNS) [µM] | TGI (HT29 colon) [µM] | GI50 (SK-MEL-28 melanoma) [µM] | GI50 (CCRF-CEM leukemia) [µM] | GI50 (HL-60(TB) leukemia) [µM] | GI50 (NCI-H23 lung) [µM] | GI50 (IGROV1 ovarian) [µM] | GI50 (HOP-92 NSCLC) [µM] | GI50 (ACHN renal) [µM] | GI50 (SK-MEL-2 melanoma) [µM] | GI50 (SF-295 CNS) [µM] | GI50 (HT29 colon) [µM]
1 | CCOc1ccc(NC(=O)CC2SC(=Nc3ccc(C)cc3C)NC2=O)cc1 (stereo not given) | > 100 | > 100 | > 100 | > 100 | > 100 | > 100 | > 100 | > 100 | > 100 | > 100 | – | – | – | – | – | – | – | – | – | –
2 | CCOC(=O)c1c(C)c2c(n1Cc1ccccc1)CSCC2=O | 55.7 | > 100 | 54.1 | 63.8 | > 100 | 19.8 | > 100 | 45.7 | 49.5 | > 100 | 22.2 | 29.9 | 18.8 | 17.2 | 16.9 | 1.21 | 18.8 | 18.4 | 18 | 18.7
3 | O=Cc1cc2c(cc1-c1cc3c(cc1C=O)OCO3)OCO2 | > 100 | 82.7 | > 100 | > 100 | > 100 | > 100 | > 100 | > 100 | > 100 | > 100 | – | – | – | – | – | – | – | – | – | –
4 | O=c1[nH]c(=O)n(C2CC(O)C(CO)O2)cc1OS(=O)(=O)C(F)(F)F (stereo not given) | > 100 | > 100 | > 100 | > 100 | > 100 | > 100 | > 100 | > 100 | > 100 | > 100 | – | – | – | – | – | – | – | – | – | –
5 | COC(=O)C1=CN(CC2=CC(=O)C(C)=CC2=O)C=C(C(=O)OC)C1c1ccccc1OC | > 57.5 | 14.1 | 18.5 | 45.6 | 57.3 | 21.9 | 30.6 | > 100 | > 55.5 | > 100 | 28 | 5.48 | 4.74 | 19.5 | 22.3 | 9.31 | 14.8 | 45.2 | 24.3 | 40.9
6 | O/N=C1\CCCCC1C(NO)c1ccccc1 (stereo not given) | > 100 | > 100 | > 100 | > 100 | > 100 | > 100 | > 100 | > 100 | > 100 | > 100 | – | – | – | – | – | – | – | – | – | –
7 | O=C(Nc1nc(-c2c[nH]c3ccccc23)cs1)c1n[nH]c(=O)c2ccccc12 | 49.2 | 98.8 | > 100 | > 100 | 34.7 | > 100 | > 69.1 | > 100 | 21.9 | > 100 | 12.4 | 1.27 | 0.777 | 24.2 | 2.01 | > 30.6 | 8.98 | 13.4 | 1.55 | 1.19
8 | COc1cc(C[P+](c2ccccc2)(c2ccccc2)c2ccccc2)cc(OC)c1OC | > 100 | > 100 | > 100 | > 100 | > 100 | > 100 | > 100 | > 100 | > 100 | > 100 | – | – | – | – | – | – | – | – | – | –
9 | COC(=N)c1csc(C2OC(CO)C(O)C2O)n1 (stereo not given) | > 100 | > 100 | > 100 | > 100 | > 100 | > 100 | > 100 | > 100 | > 100 | > 100 | – | – | – | – | – | – | – | – | – | –
10 | CCOC(=O)C(Br)=C1OC(=O)c2ccccc2-c2ccccc21 (mixture of isomers) | 37.8 | 40.2 | 35 | 48 | 34.4 | 29.5 | 29 | 37.4 | 54.4 | 29.5 | – | – | – | – | – | – | – | – | – | –
11 | CCCCCCCCc1cc2c(O)c(c1)Cc1cc(CCCCCCCC)cc(c1O)Cc1cc(CCCCCCCC)cc(c1O)Cc1cc(CCCCCCCC)cc(c1O)Cc1cc(CCCCCCCC)cc(c1O)Cc1cc(CCCCCCCC)cc(c1O)C2 | > 100 | > 100 | > 100 | > 100 | > 100 | > 100 | > 100 | > 100 | > 100 | > 100 | – | – | – | – | – | – | – | – | – | –
12 | Nc1c(S(=O)(=O)c2ccc(Cl)cc2)c2nc3ccccc3nc2n2ccnc12 | > 100 | > 100 | > 100 | > 100 | > 100 | > 100 | > 100 | > 100 | > 100 | > 100 | – | – | – | – | – | – | – | – | – | –
